The subject of the test is VEGF-induced retinal vascular leakage. As to the kind of experiment: VEGF-induced vascular leakage in a rabbit model of blood-retinal barrier breakdown (ocular fluorophotometry). Conditions: for Inhibition of retinal vascular leakage: single intravitreal injection Day 0, 500 ng rhVEGF165 Day 5, fluorophotometry Day 7, rabbit.

The values that follow come from patent publication US20100233194A1, “TREATMENT OF NEOVASCULAR OCULAR DISEASE STATES” (priority 2007, published 2010).

As to `CC1(C)O[C@@H]2C[C@H]3[C@@H]4CCC5=CC(=O)C=C[C@]5(C)[C@@]4(F)[C@@H](O)C[C@]3(C)[C@]2(C(=O)CO)O1` [TA, triamcinolone acetonide], the “Inhibition of retinal vascular leakage” value is reported as 13% (TA 75 μg) and 96% (TA 400 μg). Besides, the “inhibition of the VEGF-induced retinal vascular leakage” value (separate study, TA 75 μg alone) is 10%.
